Reference: publication PMC7765388, “Synthesis and In Vitro Antiprotozoan Evaluation of 4-/8-Aminoquinoline-based Lactams and Tetrazoles” (Molecules, 2020)
Where two headings read alike, the source gives them in different places.

Key:
[1] = test system: Trypanosoma brucei rhodesiense STIB900; assay: In vitro antitrypanosomal activity, alamarBlue assay; assay type: cell-based; conditions: STIB900 bloodstream forms, 70 h + 2-4 h alamarBlue, read-out: T. b. brucie T. b. rhod IC50
Protocol: (§1) Antiplasmodial activity on the K1 strain, antitrypanosomal activity on T. b. brucei rhodesiense STIB900 and cytotoxicity on the L6 mammalian cell-line were all carried out at the Swiss Tropical and Public Health Institute (STPH), Switzerland as follows:
This stock was isolated in 1982 from a human patient in Tanzania and, after several mouse passages, was cloned and adapted to axenic culture conditions. Minimum essential medium (50 µL) supplemented with 25 mM HEPES, 1 g/L additional glucose, 1% MEM non-essential amino acids (100×), 0.2 mM 2-mercaptoethanol, 1 mM Na-pyruvate and 15% heat-inactivated horse serum was added to each well of a 96-well microtiter plate. Serial drug dilutions of eleven three-fold dilution steps covering a range from 100 to 0.002 μg/mL were prepared. Then, 4 × 10^3 bloodstream forms of T. b. rhodesiense STIB 900 in 50 µL was added to each well and the plate incubated at 37 °C under a 5% CO2 atmosphere for 70 h. 10 µL alamarBlue (resazurin, 12.5 mg in 100 mL double-distilled water) was then added to each well and incubation continued for a further 2–4 h. Then the plates were read with a Spectramax Gemini XS microplate fluorometer (Molecular Devices Cooperation, Sunnyvale, CA, USA) using an excitation wavelength of 536 nm and an emission wavelength of 588 nm. The test compounds were tested in triplicate, and their IC50 values were calculated by linear regression from the sigmoidal dose inhibition curves using Softmax Pro software (Molecular Devices Cooperation, Sunnyvale, CA, USA).

P. falciparum K1 strain = assay: In vitro antiplasmodium activity, 3H-hypoxanthine incorporation assay; assay type: cell-based, Plasmodium falciparum; conditions: for IC50: read-out: P. falciparum K1 IC50; for Selectivity Indices (SI) [(IC50 L6 Cell Line)/(IC50 K1 strain)]: L6 vs K1
Protocol: as §1
In vitro activity against erythrocytic stages of P. falciparum was determined using a ^3H-hypoxanthine incorporation assay, using the chloroquine and pyrimethamine-resistant K1 strain that originates from Thailand and the standard drug chloroquine (Sigma C6628). Compounds were dissolved in DMSO at 10 mg/mL and added to parasite cultures incubated in RPMI 1640 medium without hypoxanthine, supplemented with HEPES (5.94 g/L), NaHCO3 (2.1 g/L), neomycin (100 U/mL), Albumax^R (5 g/L) and washed human red cells A^+ at 2.5% hematocrit (0.3% parasitemia). Serial drug dilutions of eleven three-fold dilution steps covering a range from 100 to 0.002 μg/mL were prepared. The 96-well plates were incubated in a humidified atmosphere at 37 °C; 4% CO2, 3% O2, 93% N2. After 48 h, 50 μL of ^3H-hypoxanthine (= 0.5 μCi) was added to each well of the plate. The test compounds were tested in triplicate ad parasite growth compared to control or blank well. The plates were incubated for a further 24 h under the same conditions. The plates were then harvested with a Betaplate™ cell harvester (Wallac, Zurich, Switzerland), and the red blood cells transferred onto a glass fiber filter then washed with distilled water. The dried filters were inserted into a plastic foil with 10 mL of scintillation fluid and counted in a Betaplate™ liquid scintillation counter (Wallac, Zurich, Switzerland). IC50 values were calculated from sigmoidal inhibition curves by linear regression using Microsoft Excel.

[2] = Aqueous kinetic solubility; assay type: physicochemical
Protocol: A 10 mM stock of the compound was diluted in DMSO to give standard solutions at 220 µM, 100 µM and 10 µM in a 96 well plate as described previously. The 10 mM stock was then spiked 1:50 in phosphate-buffered saline pH 7.0 to give a final DMSO concentration of 2%. Both the standard and sample solutions were plated in triplicate. After shaking for 2 h at 25 °C, the solutions were filtered and analyzed on an Agilent 1200 series HPLC with DAD detection. The solubility of the test compounds was determined by comparing the peak area of the sample solutions to that of the standard solutions.

[3] = In vitro cytotoxicity with L-6 cells, alamarBlue assay; assay type: cell-based; conditions: rat, L6 cells, 70 h + 2 h alamarBlue, read-out: Cytotoxicity L6 Cell Lines IC50
Protocol: as §1
Assays were performed in triplicate in 96-well microtiter plates, each well containing 100 μL of RPMI 1640 medium supplemented with 1% L-glutamine (200 mM) and 10% fetal bovine serum, and 4000 L-6 cells (a primary cell line derived from rat skeletal myoblasts). Serial drug dilutions of eleven three-fold dilution steps covering a range from 100 to 0.002 μg/mL were prepared. After 70 h of incubation, the plates were inspected under an inverted microscope to assure the growth of the controls and sterile conditions. 10 μL of alamarBlue was then added to each well, and the plates incubated for another 2 h. Then the plates were read with a Spectramax Gemini XS microplate fluorometer (Molecular Devices Cooperation, Sunnyvale, CA, USA) using an excitation wavelength of 536 nm and an emission wavelength of 588 nm. The IC50 values were calculated by linear regression from the sigmoidal dose inhibition curves using Softmax Pro software (Molecular Devices Cooperation, Sunnyvale, CA, USA).

[4] = multidrug-resistant (chloroquine and pyrimethamine-resistant) K1 strain, erythrocytic stages, 72 h
[5] = Plasmodium falciparum, K1, 72 h
[6] = aqueous buffer, kinetic from dmso stock, phosphate-buffered saline pH 7.0, 2% DMSO, 2 h at 25 °C
[7] = Plasmodium falciparum, multidrug-resistant (chloroquine and pyrimethamine-resistant) K1 strain, erythrocytic stages, 72 h
[8] = L-6 cells (rat skeletal myoblasts)

Row | Compound | IC50 [1] [µM] | IC50 (P. falciparum K1 strain; [4]) [µM] | IC50 ([1]; Trypanosoma brucei) [µM] | Selectivity Indices (SI) [(IC50 L6 Cell Line)/(IC50 K1 strain)] (P. falciparum K1 strain) | IC50 (P. falciparum K1 strain; [7]) [µM] | IC50 at 72 h [3, 8] [µM] | other results
1 | 1-[2-(7-Chloroquinolin-4-ylamino)ethyl]-3-methoxy-4-(4-methoxyphenyl)azetidin-2-one [Compound 4b] | 52.9 | 0.62 | – | – | – | – | –
2 | 1-[2-(7-Chloroquinolin-4-ylamino)ethyl]-3-methoxy-4-p-tolylazetidin-2-one [Compound 4c] | 52.5 | 0.58 | – | – | – | – | –
3 | 1-[2-(7-Chloroquinolin-4-ylamino)ethyl]-4-(4-chlorophenyl)-3-methoxyazetidin-2-one [Compound 4e] | 7.01 | 0.3 | – | – | – | – | solubility kinetic at 2 h ([2]; pH 7): >200 µM
4 | CCN(CC)CCCC(C)Nc1ccnc2cc(Cl)ccc12 (stereo not shown) [Chloroquine, reference compound] | – | – | – | – | – | – | IC50 (P. falciparum K1 strain; [5]): 0.22 µM
5 | COC1C(=O)N(CCNc2ccnc3cc(Cl)ccc23)C1c1ccccc1 (stereo not shown) [Compound 4a, 1-[2-(7-Chloroquinolin-4-ylamino)ethyl]-3-methoxy-4-phenylazetidin-2-one] | – | – | 53.2 | 211 | 0.47 | 98.5 | solubility kinetic at 2 h [2, 6]: > 200 µM
6 | COC1C(=O)N(CCNc2ccnc3cc(Cl)ccc23)C1c1ccc(Cl)c(Cl)c1 (stereo not shown) [Compound 4d, 1-[2-(7-Chloroquinolin-4-ylamino)ethyl]-4-(3,4-dichlorophenyl)-3-methoxyazetidin-2-one] | – | – | 19 | 43 | 0.2 | 8.54 | –
7 | COC1C(=O)N(CCCNc2ccnc3cc(Cl)ccc23)C1c1ccccc1 (stereo not shown) [Compound 4f, 1-[3-(7-Chloroquinolin-4-ylamino)propyl]-3-methoxy-4-phenylazetidin-2-one] | – | – | 16.1 | 25 | 0.57 | 14.4 | –
8 | COC1C(=O)N(CCCCNc2ccnc3cc(Cl)ccc23)C1c1ccccc1 (stereo not shown) [Compound 4g, 1-[4-(7-Chloroquinolin-4-ylamino)butyl]-3-methoxy-4-phenylazetidin-2-one] | – | – | 20 | 9 | 0.31 | 2.87 | solubility kinetic at 2 h [2, 6]: > 200 µM
9 | COc1cccc(C(NCCCC(C)Nc2cc(OC)cc3cccnc23)c2nnnn2C(C)(C)C)c1 (stereo not shown) [Compound 6b] | – | – | 14.2 | 38 | 1.98 | 75.5 | –
10 | COc1cc([C@@H]2c3cc4c(cc3[C@H](O)[C@H]3COC(=O)[C@H]23)OCO4)cc(OC)c1OC [Podophyllotoxin, reference compound] | – | – | – | – | – | – | IC50 at 72 h [3]: 0.0193 µM
11 | COc1cc(NC(C)CCCN)c2ncccc2c1 (stereo not shown) [Primaquine, reference compound] | – | – | – | – | – | – | IC50 (P. falciparum K1 strain; [5]): 0.64 µM
12 | N-{5-[(1-tert-butyl-1H-tetrazol-5-yl)(3,4-dichlorophenyl)methylamino]pentan-2-yl}-6-methoxyquinolin-8-amine [Compound 6d] | 18.3 | 1.31 | – | – | – | – | solubility kinetic at 2 h ([2]; pH 7): <5 µM
13 | N-{5-[(1-tert-butyl-1H-tetrazol-5-yl)(4-chlorophenyl)methylamino]pentan-2-yl}-6-methoxyquinolin-8-amine [Compound 6e] | 21.4 | 1.8 | – | – | – | – | solubility kinetic at 2 h ([2]; pH 7): <15 µM
14 | N-{5-[(1-tert-butyl-1H-tetrazol-5-yl)(p-tolyl)methylamino]pentan-2-yl}-6-methoxyquinolin-8-amine [Compound 6c] | 18.5 | 1.57 | – | – | – | – | solubility kinetic at 2 h ([2]; pH 7): <5 µM
15 | N-{5-[(1-tert-butyl-1H-tetrazol-5-yl)(phenyl)methylamino]pentan-2-yl}-6-methoxyquinolin-8-amine [Compound 6a] | 18.1 | 2.47 | – | – | – | – | –
